The target of one experiment is T1, human CB1 receptor (Homo sapiens, UniProt P21554).
T1 construct: host or cells: CHO-K1 (stably transfected cell line, membranes prepared in house)
In words: CB1 radioligand competitive binding assay ([3H]CP 55,940 displacement). Particulars: for Selectivity CB1: fold difference between CB1 and CB2 binding, printed in the column of the receptor with higher affinity, 1.00 in both = about the same affinity.

A further experiment addresses T2, human CB2 receptor (Homo sapiens, UniProt P34972).
T2 construct: host or cells: CHO-K1 (stably transfected cell line, membranes prepared in house)
In words: CB2 radioligand competitive binding assay ([3H]CP 55,940 displacement). Particulars: for Selectivity CB2: fold difference between CB1 and CB2 binding, printed in the column of the receptor with higher affinity, 1.00 in both = about the same affinity. The method, then:
Compounds of the present disclosure were tested for CB1 receptor binding affinity and for CB2 receptor binding affinity. As used herein, “binding affinity” is represented by the IC50 value, which was experimentally determined as described herein. The lower the IC50 value the higher the binding affinity. A compound of the present disclosure may be said to have “binding selectivity” if it has a higher binding affinity for one receptor compared to the other.
The membranes were prepared from CHO-K1 (Chinese hamster ovary) cells stably transfected with the human CB2 receptor (Cat. #ES-111-C; Perkin Elmer, Boston, Mass.). The cells were grown adherently and maintained in Ham's F12 medium containing 10% fetal bovine serum (FBS), penicillin, streptomycin and geneticin (G418) at 37° C. in a humid atmosphere of 5% CO2 following the manufacturer's instructions.
For membrane preparation the cells were washed with PBS and scraped off the plates in cold homogenization buffer (25 mM HEPES (pH 7.4), 2 mM EDTA) containing protease inhibitor cocktail (Sigma Cat. #P8340). The cell suspension was homogenized with a Pro-PK-01200D Polytron Homogenizer (Pro Scientific) and then centrifuged for 30 min at 120,000×g. The supernatant was discarded and the pellet was re-suspended in the homogenization buffer and stored at −80° C. until the time of use.
In this experiment, 3H radiolabeled CP 55,940, i.e. [3H]CP 55,940 (Perkin Elmer, Boston, Mass.), was used as a radioligand for the CB2 receptor to determine the binding affinity of compounds for the CB2 receptor (Scheme 3; above).
The competition binding experiments (single dose and dose-response) were performed by incubating 0.6 nM of [3H]CP55,940 (specific activity 101 Ci/mmol, Perkin Elmer) and different concentrations of compounds disclosed herein with membranes prepared as above from CHO-K1 cells expressing human CB2 receptor (1 μg of protein/well), 50 mM Tris-HCl (pH 7.4), 5 mM MgCl2, 1 mM CaCl2, and 2 mg/mL BSA.
For the single dose experiments, the compound stocks (usually 10 mM in DMSO) were diluted to working stocks in the binding buffer to give the final compound concentrations of 10 μM and 1 μM. For the dose-response experiments the test compounds were sequentially diluted to provide the desired concentration range for the IC50 determination. In each case the compounds were pre-incubated with the membrane for 20 min, before adding the radioligand.
After incubation with the radioligand for 60 min at 37° C., the incubation was terminated by rapid filtration of assay mixture through MultiScreen®HTS^+ 96-well filter plates (Millipore, Cat. #MSFCNXB), pre-soaked for 60 min with 50 mM Tris-HCl (pH 7.4) containing 0.33% polyethylenimine (PEI). The nonspecific binding (NSB) was determined in the presence of 10 μM unlabelled CP55,940. After drying the filter plate at 50° C. for at least 60 min, the filter-bound radioactivity was determined by scintillation spectrometry using the 1450 MicroBeta Plate Counter (Perkin Elmer, Boston, Mass.). From the dose-response experiments, the IC50 values were determined (see Table 1, CB2 IC50).
Where the test compound had about the same affinity for both receptors, this is represented by a value of 1.00 in the column for both receptors.

The mark [1] stands for this setting: 0.8 nM [3H]CP 55,940, membranes from CHO-K1 cells expressing human CB1 receptor, dose-response, read-out: CB1 IC50.
Setting [2] is: 0.6 nM [3H]CP 55,940, membranes from CHO-K1 cells expressing human CB2 receptor, dose-response, read-out: CB2 IC50.

Like-named read-outs stand apart in the source and are kept apart here.

These results are taken from US20230059582A1, “CANNABINOID DERIVATIVES” (CANOPY GROWTH CORPORATION, priority 2019, published 2023).

The term IC50 denotes the concentration that gives 50% inhibition.

T1 sequence (P21554 whole entry): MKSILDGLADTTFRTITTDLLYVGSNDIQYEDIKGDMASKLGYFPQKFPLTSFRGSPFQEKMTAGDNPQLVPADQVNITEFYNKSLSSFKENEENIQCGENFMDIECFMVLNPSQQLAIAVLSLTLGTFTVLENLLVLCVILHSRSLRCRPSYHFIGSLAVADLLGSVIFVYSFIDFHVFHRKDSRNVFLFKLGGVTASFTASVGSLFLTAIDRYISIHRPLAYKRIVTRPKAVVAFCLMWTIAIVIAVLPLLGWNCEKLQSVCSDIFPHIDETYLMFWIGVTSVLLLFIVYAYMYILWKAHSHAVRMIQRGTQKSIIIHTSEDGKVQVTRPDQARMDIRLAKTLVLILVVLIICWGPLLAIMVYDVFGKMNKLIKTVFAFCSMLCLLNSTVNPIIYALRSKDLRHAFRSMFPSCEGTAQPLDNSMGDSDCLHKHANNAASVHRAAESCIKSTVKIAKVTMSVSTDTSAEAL
T2 sequence (P34972 whole entry): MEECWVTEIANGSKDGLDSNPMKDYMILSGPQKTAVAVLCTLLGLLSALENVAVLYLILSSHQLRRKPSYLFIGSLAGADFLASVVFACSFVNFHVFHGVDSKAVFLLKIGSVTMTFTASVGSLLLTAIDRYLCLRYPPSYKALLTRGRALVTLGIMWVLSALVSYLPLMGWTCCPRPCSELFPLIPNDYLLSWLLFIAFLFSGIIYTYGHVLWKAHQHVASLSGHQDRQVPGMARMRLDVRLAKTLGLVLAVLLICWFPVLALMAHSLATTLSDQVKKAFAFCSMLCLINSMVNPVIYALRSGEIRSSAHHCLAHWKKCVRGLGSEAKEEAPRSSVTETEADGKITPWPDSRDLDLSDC

Take `CCCCCc1cc(O)c(CC=C(C)CCC=C(C)C)c(OCOC(=O)C(C)(C)C)c1` [Compound 7, (2-(3,7-dimethylocta-2,6-dien-1-yl)-3-hydroxy-5-pentylphenoxy)methyl pivalate]: the 50% inhibitory concentration (IC50) on human CB1 receptor (setting [1]) is 0.5 to 0.99 µM; on human CB2 receptor (setting [2]), less than 0.5 µM. Besides, on human CB2 receptor, the “Selectivity CB2” value worked out at 16.02 fold.
As for `CCCCCc1cc(O)c(C/C=C(\C)CCC=C(C)C)c(OCN(C(=O)OC)c2ccccc2)c1` [Compound 23, methyl ((2-(3,7-dimethylocta-2,6-dien-1-yl)-3-hydroxy-5-pentylphenoxy)methyl)(phenyl)carbamate], the half-maximal inhibitory concentration (IC50) on human CB1 receptor (setting [1]) and at human CB2 receptor (setting [2]) was less than 0.5 µM in each case. Moreover, the “Selectivity CB2” value at human CB2 receptor amounted to 1.37 fold.
On to `CCCc1cc(O)c(C/C=C(\C)CCC=C(C)C)c(OCOC(=O)C(C)(C)C)c1` [Compound 19, (2-(3,7-dimethylocta-2,6-dien-1-yl)-3-hydroxy-5-propylphenoxy)methyl pivalate], for which the IC50 at human CB1 receptor (setting [1]) was 0.5 to 0.99 µM; at human CB2 receptor (setting [2]) it was less than 0.5 µM. In addition, the “Selectivity CB2” value at human CB2 receptor amounted to 3.89 fold.
As for `CCCCCc1cc(O)c(CC=C(C)CCC=C(C)C)c(OCOC(=O)OCC)c1` [Compound 4, (2-(3,7-dimethylocta-2,6-dien-1-yl)-3-hydroxy-5-pentylphenoxy)methyl ethyl carbonate], the IC50 on human CB1 receptor (setting [1]) is 1 to 4.99 µM; on human CB2 receptor (setting [2]), less than 0.5 µM. In addition, the “Selectivity CB2” value at human CB2 receptor was 7.82 fold.
Taken in the same sequence, the figures for `CCCCCc1cc(OCOC(=O)OCC)c(CC=C(C)CCC=C(C)C)c(OCOC(=O)OCC)c1` [4′, ((2-(3,7-dimethylocta-2,6-dien-1-yl)-5-pentyl-1,3-phenylene)bis(oxy))bis(methylene) diethyl bis(carbonate)] were more than 5 µM, 0.5 to 0.99 µM and 24.69 fold.
For `CCCCCc1cc(O)c(C/C=C(\C)CCC=C(C)C)c(OCOCCOC)c1` [Compound 17, 2-(3,7-dimethylocta-2,6-dien-1-yl)-3-((2-methoxyethoxy)methoxy)-5-pentylphenol], the half-maximal inhibitory concentration (IC50) at human CB1 receptor and on human CB2 receptor was 1 to 4.99 µM in each case. For the same molecule, at human CB2 receptor, the “Selectivity CB2” value worked out at 4.00 fold.
In the case of `CCCc1cc(O)c(C/C=C(\C)CCC=C(C)C)c(OCOC(=O)OCC)c1` [Compound 20, (2-(3,7-dimethylocta-2,6-dien-1-yl)-3-hydroxy-5-propylphenoxy)methyl ethyl carbonate], the half-maximal inhibitory concentration (IC50) on human CB1 receptor (setting [1]) and on human CB2 receptor (setting [2]) was 1 to 4.99 µM each time. The “Selectivity CB2” value at human CB2 receptor is on record as 1.80 fold.
With `CCCCCc1cc(OCOC2CCCCC2)c(CC=C(C)CCC=C(C)C)c(OCOC2CCCCC2)c1` [18′, ((((2-(3,7-dimethylocta-2,6-dien-1-yl)-5-pentyl-1,3-phenylene)bis(oxy))bis(methylene))bis(oxy))dicyclohexane], the half-inhibitory concentration (IC50) at human CB1 receptor (setting [1]) and on human CB2 receptor (setting [2]) was more than 5 µM throughout. Moreover, the “Selectivity CB1” value on human CB1 receptor was 1.00 fold. The “Selectivity CB2” value at human CB2 receptor is listed as 1.00 fold.
As for `CCCCCCC(C)(C)c1cc(OCOC(=O)C(C)(C)C)c(CC=C(C)CCC=C(C)C)c(OCOC(=O)C(C)(C)C)c1` [22′, ((2-(3,7-dimethylocta-2,6-dien-1-yl)-5-(2-methyloctan-2-yl)-1,3-phenylene)bis(oxy))bis(methylene) bis(2,2-dimethylpropanoate)], the values for the IC50 at human CB1 receptor (setting [1]) and at human CB2 receptor (setting [2]) were more than 5 µM and 1 to 4.99 µM, respectively. For the same molecule, the “Selectivity CB2” value at human CB2 receptor is given as 7.14 fold.
On to `CCCCCc1cc(OCOC(=O)C(C)(C)C)c(CC=C(C)CCC=C(C)C)c(OCOC(=O)C(C)(C)C)c1` [7′, ((2-(3,7-dimethylocta-2,6-dien-1-yl)-5-pentyl-1,3-phenylene)bis(oxy))bis(methylene) bis(2,2-dimethylpropanoate)], for which the IC50 on human CB1 receptor (setting [1]) and on human CB2 receptor (setting [2]) was more than 5 µM throughout. Also, the “Selectivity CB1” value at human CB1 receptor turned out to be 1.00 fold. For the same molecule, the “Selectivity CB2” value at human CB2 receptor is reported as 1.00 fold.
`CCCCCCC(C)(C)c1cc(O)c(C/C=C(\C)CCC=C(C)C)c(OCOC(=O)OCC)c1` [Compound 21, (2-(3,7-dimethylocta-2,6-dien-1-yl)-3-hydroxy-5-(2-methyloctan-2-yl)phenoxy)methyl ethyl carbonate] returned a concentration for half-maximal inhibition (IC50) at human CB1 receptor of 0.5 to 0.99 µM. For the same molecule, at human CB2 receptor, the IC50 is less than 0.5 µM and the “Selectivity CB2” value was determined as 6.92 fold.
`CCCCCc1cc(O)c(CC=C(C)CCC=C(C)C)c(OCOC2CCCCC2)c1` [Compound 18, 3-((cyclohexyloxy)methoxy)-2-(3,7-dimethylocta-2,6-dien-1-yl)-5-pentylphenol]: the IC50 on human CB1 receptor (setting [1]) was more than 5 µM; on human CB2 receptor (setting [2]), less than 0.5 µM. In addition, the “Selectivity CB2” value at human CB2 receptor came out at 28.00 fold.
As to `CCCCCc1cc(O)c(C/C=C(\C)CCC=C(C)C)c(OCOCC)c1` [Compound 16, 2-(3,7-dimethylocta-2,6-dien-1-yl)-3-(ethoxymethoxy)-5-pentylphenol], the IC50 at human CB1 receptor (setting [1]) was more than 5 µM; at human CB2 receptor (setting [2]), 1 to 4.99 µM. Further, the “Selectivity CB2” value at human CB2 receptor turned out to be 2.83 fold.
On the same counts, the results for “dimethyl (((5-butyl-2-(3,7-dimethylocta-2,6-dien-1-yl)-1,3-phenylene)bis(oxy))bis(methylene)) bis(phenylcarbamate) [23′]” are more than 5 µM, more than 5 µM and 1.88 fold.
On to `CCCCCCC(C)(C)c1cc(O)c(CC=C(C)CCC=C(C)C)c(OCOC(=O)C(C)(C)C)c1` [Compound 22, (2-(3,7-dimethylocta-2,6-dien-1-yl)-3-hydroxy-5-(2-methyloctan-2-yl)phenoxy)methyl pivalate], for which the IC50 on human CB1 receptor (setting [1]) was 1 to 4.99 µM; on human CB2 receptor (setting [2]), less than 0.5 µM. The “Selectivity CB2” value on human CB2 receptor was determined as 7.25 fold.
